No end group written: not given here.
Experiments:
X4 HIV-1 strains = test system: X4 HIV-1 strains
Experimental: (§1) Antiviral screening was performed using the X4 HIV-1 NL4-3 molecular clone.
(§2) HIV-1, HIV-2 and SIV molecular clones differing in coreceptor tropism were generated by transient transfection of 293T cells with proviral DNA by the calcium phosphate method (CalPhos™ Mammalian Transfection Kit, Clon-tech). After overnight incubation, the transfection mixture was replaced by DMEM medium supplemented with 10% FCS, and virus stocks were harvested 48 hrs post-transfection. Subsequently, the culture supernatant was centrifuged for 5 min at 3000 rpm to remove cell debris. The resulting virus stock was quantified by p24 (HIV) or p27 (SIV) antigen ELISA. Virus stocks were either used immediately or stored in aliquots at −80° C.
(§3) TZM-bl reporter cells containing the LacZ reporter gene under the control of the HIV-1 promoter were seeded in 96-well F-bottom microtiter plates (Greiner Bio-One). On the following day, the cells were preincubated with various dilutions of the peptide of SEQ ID NO 16 or its derivatives for 1 hour and subsequently infected with HIV-1, HIV-2, and SIV. Infection rates were determined after 2 days using the one-step Tropix Gal-Screen Kit, as recommended by the manufacturer.

X4 tropic HIV-1 NL4-3 = conditions: blocking X4 tropic HIV-1 NL4-3 infection
Experimental: as §1, §2, §3

CXCR4 [1] = biological target: T1, CXCR4 (Homo sapiens, UniProt P61073); assay: Competition with CXCL12 binding to CXCR4 (real-time fluorescence, eGFP-CXCR4 cells); conditions: read-out: dissociation constant (DC50), competition with CXCL12 binding to CXCR4
T1 construct: expressed in transfected cells
T1 sequence (P61073 whole entry): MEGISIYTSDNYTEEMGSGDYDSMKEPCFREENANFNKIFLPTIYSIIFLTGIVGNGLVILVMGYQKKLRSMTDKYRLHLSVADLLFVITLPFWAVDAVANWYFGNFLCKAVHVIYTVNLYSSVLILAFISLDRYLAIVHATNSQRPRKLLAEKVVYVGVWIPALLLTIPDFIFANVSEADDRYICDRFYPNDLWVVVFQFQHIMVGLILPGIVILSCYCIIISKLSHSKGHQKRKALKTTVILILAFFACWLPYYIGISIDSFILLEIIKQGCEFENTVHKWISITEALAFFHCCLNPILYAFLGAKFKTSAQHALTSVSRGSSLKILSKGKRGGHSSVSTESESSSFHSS
Experimental: Anti-human CXCR4 (clone 12G5, IgG2a) or anti-human CXCR7 (clone 9C4) monoclonal antibodies (mAbs) were purchased from R&D Systems (Minneapolis, Minn.). […] The human chemokines CXCL12 and CXCL12-TexasRed were synthesized as described (Valenzuela-Fernandez, et al. 2001). The human chemokine CXCL11 was purchased from Clinisciences SAS (France).
Experiments were performed using cells stably expressing eGFP-CXCR4, suspended in HEPES-bovine serum albumin buffer (10 mM HEPES, 137.5 mM NaCl, 1.25 mM MgCl2, 1.25 mM CaCl2, 6 mM KCl, 10 mM glucose, 0.4 mM NaH2PO4, 0.1% bovine serum albumin (w/v), pH 7.4) (typically at 10^6 cells/mL). Time-based recordings of the fluorescence emitted at 510 nm (excitation at 470 nm) were performed at 21° C. using a spectrofluorimeter and sampled every 0.3 s. Fluorescence binding measurements were initiated by adding at 30 s 100 nM of CXCL12-TR to the 1 mL cell suspension. For competition experiments, EGFP-CXCR4 expressing cells were preincubated for 10 min in the absence or presence of various concentrations of unlabelled drugs. Then, CXCL12-TR (100 nM) was added and fluorescence was recorded until equilibrium was reached (300 s). Data were analyzed using Kaleidagraph 3.08 software (Synergy Software, Reading, Pa., USA).

CXCR4 [2] = biological target: T2, CXCR4 (Mus musculus, UniProt P70658); assay: Asthma mouse model (OVA challenge); type: in vivo; conditions: mice, i.p., allergen challenge with OVA
T2 construct: from tissue; host or cells: live mice (C57Bl/6J for mobilization)
T2 sequence (P70658 whole entry): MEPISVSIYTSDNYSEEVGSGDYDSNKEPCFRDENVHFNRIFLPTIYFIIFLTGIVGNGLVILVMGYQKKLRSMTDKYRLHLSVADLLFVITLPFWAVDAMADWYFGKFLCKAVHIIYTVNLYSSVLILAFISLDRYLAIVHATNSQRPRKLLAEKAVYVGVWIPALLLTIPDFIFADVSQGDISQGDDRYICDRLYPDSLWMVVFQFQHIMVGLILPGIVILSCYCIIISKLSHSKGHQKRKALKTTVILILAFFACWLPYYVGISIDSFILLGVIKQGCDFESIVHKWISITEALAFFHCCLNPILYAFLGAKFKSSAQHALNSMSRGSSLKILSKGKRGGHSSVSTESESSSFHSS
Experimental: Mice were sensitized by intraperitoneal (i.p.) injection on days 0, 1 and 2 of 50 μg ovalbumin (OVA, Sigma-Aldrich, A5503) adsorbed on 2 mg aluminium hydroxide (Sigma-Aldrich, 23918-6) in saline. Mice were challenged by intranasal (i.n.) instillation of 10 μg OVA in 25 μl saline (12.5 μl/nostril) or saline alone for control mice on days 5, 6 and 7 under anesthesia (50 mg/kg ketamine and 3.3 mg/kg xylazine, i.p.). the peptide of SEQ ID NO 16 or ALB409-423 in saline were administered i.p. (16 μmol/kg) two hours before each OVA challenge. Bronchoalveolar lavage (BAL) and differential cell counts were performed 24 h after the last OVA challenge as previously reported in (Rebber et al., 2012).

Staphylococus aureus = assay: Antibacterial activity against Staphylococcus; type: cell-based
other GPCRs = assay: GPCR antagonist screen; conditions: selectivity for CXCR4
Description: GPCR Antagonist Screen of the Peptide of SEQ ID NO 16

## LVRYTKKVPQVSTPTL [Derivative 408-423, LVRYTKKVPQVSTPTL]
X4 HIV-1 strains; mean over X4 HIV-1 strains, chemically synthesized peptide
  mean 50% inhibitory concentration (IC50), infection by X4 HIV-1 strains: 15.8 mg/L
X4 HIV-1 strains; pretreatment of target cells
  HIV infection after pretreatment of viral target cells (not of virions): effective reduction
X4 HIV-1 strains; read-out: mean 50% inhibitory concentration (IC50), infection by X4 HIV-1 strains, corresponding to 15.8 μg/ml
  IC50: 8.6 µM
X4 tropic HIV-1 NL4-3
  IC50: 8.63 µM
CXCR4 [1]
  DC50: 8 ± 3 µM
CXCR4 [2]
  CXCR4-dependent infiltration of neutrophils, lymphocytes and eosinophils into the airways: significantly reduced
  infiltration of macrophages: markedly reduced
Staphylococus aureus
  effects against Staphylococus aureus: only modest effects
Other GPCRs
  activity of a large number of other GPCRs: not affected
